Measurements: the NIST ThermoML archive (doi:10.1016/j.tca.2018.11.018)
± gives the expanded uncertainty stated by the source.

Test: xn = mol fraction of the nth substance listed
Conditions: 100 kPa, Liquid; for mass density: Vibrating tube method; for viscosity: Falling or rolling sphere viscometry

CCCC[n+]1ccccc1.[Br-] [1-butylpyridinium bromide] + O
Conditions | mass density [kg/m3] | viscosity [mPa·s]
323.15 K, x1 = 0.03 | 1055.7 ± 1 | –
323.15 K, x1 = 0.06 | 1103.2 ± 1 | –
323.15 K, x1 = 0.09 | 1138.1 ± 1 | –
323.15 K, x1 = 0.13 | 1172.4 ± 1.1 | –
323.15 K, x1 = 0.17 | 1197.1 ± 1.1 | –
323.15 K, x1 = 0.211 | 1216.3 ± 1.1 | –
323.15 K, x1 = 0.25 | 1230.5 ± 1.2 | –
323.15 K, x1 = 0.291 | 1242.4 ± 1.3 | –
323.15 K, x1 = 0.332 | 1252 ± 1.5 | –
323.15 K, x1 = 0.377 | 1260.6 ± 1.7 | –
328.15 K, x1 = 0.03 | 1052.8 ± 1 | 0.822 ± 0.05
328.15 K, x1 = 0.06 | 1099.9 ± 1 | 1.185 ± 0.072
328.15 K, x1 = 0.09 | 1134.7 ± 1 | 1.623 ± 0.098
328.15 K, x1 = 0.13 | 1168.8 ± 1.1 | 2.359 ± 0.14
328.15 K, x1 = 0.17 | 1193.5 ± 1.1 | 3.564 ± 0.22
328.15 K, x1 = 0.211 | 1212.7 ± 1.1 | 4.914 ± 0.3
328.15 K, x1 = 0.25 | 1227 ± 1.2 | 6.394 ± 0.39
328.15 K, x1 = 0.291 | 1239 ± 1.3 | 8.281 ± 0.51
328.15 K, x1 = 0.332 | 1248.6 ± 1.5 | 10.52 ± 0.64
328.15 K, x1 = 0.377 | 1257.3 ± 1.7 | 13.65 ± 0.84
333.15 K, x1 = 0.03 | 1049.9 ± 1 | 0.758 ± 0.046
333.15 K, x1 = 0.06 | 1096.5 ± 1 | 1.081 ± 0.065
333.15 K, x1 = 0.09 | 1131.1 ± 1 | 1.474 ± 0.089
333.15 K, x1 = 0.13 | 1165.2 ± 1.1 | 2.113 ± 0.13
333.15 K, x1 = 0.17 | 1189.9 ± 1.1 | 3.178 ± 0.19
333.15 K, x1 = 0.211 | 1209.1 ± 1.1 | 4.327 ± 0.26
333.15 K, x1 = 0.25 | 1223.4 ± 1.2 | 5.626 ± 0.34
333.15 K, x1 = 0.291 | 1235.5 ± 1.3 | 7.256 ± 0.44
333.15 K, x1 = 0.332 | 1245.4 ± 1.5 | 9.187 ± 0.56
333.15 K, x1 = 0.377 | 1253.9 ± 1.7 | 11.84 ± 0.73
338.15 K, x1 = 0.03 | 1046.6 ± 1 | 0.704 ± 0.043
338.15 K, x1 = 0.06 | 1092.8 ± 1 | 1.002 ± 0.061
338.15 K, x1 = 0.09 | 1127.5 ± 1 | 1.353 ± 0.082
338.15 K, x1 = 0.13 | 1161.5 ± 1.1 | 1.912 ± 0.12
338.15 K, x1 = 0.17 | 1186.2 ± 1.1 | 2.852 ± 0.17
338.15 K, x1 = 0.211 | 1205.5 ± 1.1 | 3.835 ± 0.23
338.15 K, x1 = 0.25 | 1219.9 ± 1.2 | 4.96 ± 0.3
338.15 K, x1 = 0.291 | 1232 ± 1.3 | 6.395 ± 0.39
338.15 K, x1 = 0.332 | 1241.8 ± 1.5 | 8.064 ± 0.49
338.15 K, x1 = 0.377 | 1250.6 ± 1.6 | 10.31 ± 0.63
343.15 K, x1 = 0.03 | 1043.2 ± 1 | 0.66 ± 0.04
343.15 K, x1 = 0.06 | 1089.5 ± 1 | 0.92 ± 0.056
343.15 K, x1 = 0.09 | 1123.9 ± 1 | 1.235 ± 0.075
343.15 K, x1 = 0.13 | 1157.8 ± 1.1 | 1.741 ± 0.11
343.15 K, x1 = 0.17 | 1182.6 ± 1.1 | 2.367 ± 0.14
343.15 K, x1 = 0.211 | 1201.9 ± 1.1 | 3.463 ± 0.21
343.15 K, x1 = 0.25 | 1216.3 ± 1.2 | 4.428 ± 0.27
343.15 K, x1 = 0.291 | 1228.5 ± 1.3 | 5.687 ± 0.35
343.15 K, x1 = 0.332 | 1238.3 ± 1.4 | 7.153 ± 0.44
343.15 K, x1 = 0.377 | 1247.2 ± 1.6 | 9.118 ± 0.56
348.15 K, x1 = 0.03 | 1039.8 ± 1 | 0.618 ± 0.037
348.15 K, x1 = 0.06 | 1086 ± 1 | 0.862 ± 0.052
348.15 K, x1 = 0.09 | 1120.1 ± 1 | 1.139 ± 0.069
348.15 K, x1 = 0.13 | 1154.1 ± 1.1 | 1.591 ± 0.096
348.15 K, x1 = 0.17 | 1178.9 ± 1.1 | 2.149 ± 0.13
348.15 K, x1 = 0.211 | 1198.3 ± 1.1 | 3.138 ± 0.19
348.15 K, x1 = 0.25 | 1212.8 ± 1.2 | 3.971 ± 0.24
348.15 K, x1 = 0.291 | 1225 ± 1.3 | 5.06 ± 0.31
348.15 K, x1 = 0.332 | 1234.9 ± 1.4 | 6.384 ± 0.39
348.15 K, x1 = 0.377 | 1243.8 ± 1.6 | 8.095 ± 0.5
